In assay [1] the target is T1, human serotonin 2C receptor (h-5-HT2C) (Homo sapiens (Human), UniProt P28335). The experiment in a line: 5-HT2C receptor agonistic action assay (FLIPR Calcium 4 Assay kit, h-5-HT2C/CHO cells). In kind it is cell-based. On the procedure: 3-1. The Cells and Inoculation Thereof
In the experiment, human serotonin 2C receptor (h-5-HT2C) was expressed in CHO cells (h-5-HT2C/CHO). The cells were incubated with UltraCHO Lipuid (trademark) (manufactured by BioWhitakker) containing 1% FBS, 400 μg/mL Geneticin, 100 U/mL penicillin—100 μg/mL streptomycin (all manufactured by Sigma Aldrich) and 250 μg/mL Zeosin (manufactured by InvivoGen) in an incubator containing 5% CO2. On the day before using the cells, they were detached and collected using 250 μg/mL Trypsin solution (manufactured by Nacalai Tesque), then inoculated in a 96 well flat clear bottom black polystyrene TC-treated microplates (manufactured by Corning) at 40000 cells/well/60 μL in an incubator containing 5% CO2 for 16 hours to 24 hours.
3-2. 5-HT2C Receptor Agonistic Action Assay
The 5-HT2C receptor agonistic action was evaluated with FLIPR Calcium 4 Assay kit (manufactured by Molecular Devices). In specific, to the cells inoculated in the plate were added Component A of FLIPR Calcium 4 Assay kit dissolved in 100 mL of HHBP buffer (1×Hanks buffer, 20 mmol/L HEPES, both manufactured by Gibco) at an amount of 40 μL/well, and the cells were incubated in an incubator containing 5% CO2 for 1 hour. Then, the cells were set in FLIPR TETRA (trademark) (manufactured by Molecular Devices), to the cells was added the test material diluted with HHBP buffer, 2.5 mmol/L Probenecid (manufactured by Sigma) (concentration after dilution: 10 μmol/L) at an amount of 20 μL/well, and the fluorescence was measured. Then, in order to evaluate the antagonistic action of the test material, 20 μL/well of 5-HT solution (manufactured by Sigma, final concentration: 0.1 nmol/L) was further added to the cells, and the fluorescence was measured.
The 5-HT2C receptor agonistic action of each test material was calculated as a rate of fluorescence enhancement wherein 100% was defined as a value when the cells were given 10 μmol/L 5-HT. Furthermore, the 5-HT2C receptor inverse agonistic action was calculated as a rate of fluorescence decay wherein −100% was defined as a value when the cells were given 10 μmol/L SB206553 (manufactured by Sigma Aldrich). A lower value of the 5-HT2C receptor agonistic action of the test material means that the material has a higher antagonistic action. In particular, when the value of the 5-HT2C receptor agonistic action of the test material is below 0%, the material has an inverse agonistic action for 5-HT2C receptor.

For assay [2], the target named is human serotonin transporter (h-SERT) (Homo sapiens (Human), UniProt P31645). The experiment in a line: [3H] citalopram binding assay to evaluate human serotonin reuptake inhibitory action (h-SERT binding assay). On the procedure:
Citalopram Binding Assay to Evaluate Human Serotonin Reuptake Inhibitory Action
(§1) Preparation of the Cells and Membrane Preparations
In the experiment, human serotonin transporter (h-SERT) was expressed in CHO cells (h-SERT/CHO). The cells were incubated with F12 containing 10% FCS, 500 μg/mL Geneticin and 100 U/mL penicillin—100 μg/mL streptmycin (all manufactured by Sigma Aldrich) in an incubator containing 5% CO2; detached and collected using a SERT buffer [50 mmol/L Tris-HCl comprising 120 mmol/L NaCl and 5 mmol/L KCl (pH=7.4)]; homogenized with a homogenizer manufactured by Teflon (trademark); and then centrifuged (50,000×g, 30 min, 4° C.). The precipitate was suspended again in the appropriate amount of SERT buffer (to give a membrane preparation), and stored at −80° C. until used. The amount of protein in the membrane preparation was assayed by Dye Reagent Concentrate (manufactured by BIO-RAD) using bovine serum albumin (manufactured by Sigma Aldrich) as a standard.
1-2. h-SERT Binding Assay
The [^3H] citalopram binding was measured according to the method disclosed in Owens M. J. et al., J. Pharm. […] The solution was reacted at room temperature for 60 minutes, and then quickly suction-filtered under reduced pressure through a glass fiber filter coated with 0.05% aq. polyethyleneimine. The glass fiber filter was washed twice with […] of the SERT buffer, placed in a plastic vial containing 4 mL of liquid scintillator (ACS-II, manufactured by Amersham) or Ecoscint A (manufactured by National Diagnostics), and the remaining radioactivity on the filter paper was assayed with a liquid scintillation counter.

Assay [3] addresses T1, human serotonin 2C receptor (h-5-HT2C). The experiment in a line: [3H] mesulergine binding assay to evaluate affinity for human 5-HT2C receptor. The conditions noted are these: h-5-HT2C/CHO membrane preparation, read-out: Test Ex. 2: 5-HT2C receptor binding inhibition constant Ki. On the procedure: Mesulergine Binding Assay to Evaluate Affinity for Human 5-HT2C Receptor
as §1
In the experiment, human serotonin 2C receptor (h-5-HT2C) was expressed in CHO cells (h-5-HT2C/CHO). The cells were incubated with UltraCHO Lipuid (trademark) (manufactured by BioWhitakker) containing 1% FBS, 400 μg/mL Geneticin, 100 U/mL penicillin—100 μg/mL streptomycin (all manufactured by Sigma Aldrich) and 250 μg/mL Zeosin (manufactured by InvivoGen) in an incubator containing 5% CO2; detached and collected using 50 mmol/L Tris-HCl (pH=7.4); homogenized with a homogenizer manufactured by Teflon (trademark); and then centrifuged (48,000×g, 25 min, 4° C.). The precipitate was suspended again in the appropriate amount of 50 mmol/L Tris-HCl (to give a membrane preparation), and stored at −80° C. until used. The amount of protein in the membrane preparation was assayed by Dye Reagent Concentrate (manufactured by BIO-RAD) using bovine serum albumin (manufactured by Sigma Aldrich) as a standard.
2-2. 5-HT2C Receptor Binding Assay
A solution of 200 μL in total was prepared by mixing 50 μL of [^3H] mesulergine (manufactured by GE Healthcare) diluted with 50 mmol/L Tris-HCl (pH=7.4) (final concentration: about 2 nmol/L), 149 μL of the h-5-HT2C/CHO membrane preparation (protein amount: 20 μg/well), and 1 μL of the test drug dissolved in dimethylsulfoxide. The solution was reacted at 37° C. for 30 minutes, and then quickly suction-filtered under reduced pressure through a glass fiber filter coated with 1% aq. bovine serum albumin. The glass fiber filter was washed twice with 250 μL of 50 mmol/L Tris-HCl (pH=7.4), placed in a plastic vial containing 4 mL of liquid scintillator (ACS-II, manufactured by Amersham) or Ecoscint A (manufactured by National Diagnostics), and the remaining radioactivity on the filter paper was assayed with a liquid scintillation counter. The non-specific binding of [^3H] mesulergine was defined as a binding amount in the presence of 10 μmol/L SB206553 (manufactured by Sigma Aldrich). The IC50 value was calculated according to Hill analysis, and the binding inhibition constant (Ki) was calculated according to the following formula: Binding inhibition constant (Ki)=IC50/(1+S/Kd) wherein S is a concentration of the added [^3H] mesulergine, and Kd is a binding dissociation constant of [^3H] mesulergine which was calculated from a saturated binding assay using the same cell membrane.

[4] abbreviates: test material 10 μmol/L, 100% = 10 μmol/L 5-HT, −100% = 10 μmol/L SB206553, below 0% = inverse agonistic action.
Where [5] appears, read: [3H] citalopram binding, read-out: Test Ex. 1: h-SERT binding inhibition constant Ki.

Molecules are shown by their SMILES. pKi: −log10 of the molar value. Where two headings read alike, the source gives them in different places.

By pKi is commonly meant −log10 of the Ki, conventionally taken in molar units.

T1 sequence (P28335 whole entry, looked up): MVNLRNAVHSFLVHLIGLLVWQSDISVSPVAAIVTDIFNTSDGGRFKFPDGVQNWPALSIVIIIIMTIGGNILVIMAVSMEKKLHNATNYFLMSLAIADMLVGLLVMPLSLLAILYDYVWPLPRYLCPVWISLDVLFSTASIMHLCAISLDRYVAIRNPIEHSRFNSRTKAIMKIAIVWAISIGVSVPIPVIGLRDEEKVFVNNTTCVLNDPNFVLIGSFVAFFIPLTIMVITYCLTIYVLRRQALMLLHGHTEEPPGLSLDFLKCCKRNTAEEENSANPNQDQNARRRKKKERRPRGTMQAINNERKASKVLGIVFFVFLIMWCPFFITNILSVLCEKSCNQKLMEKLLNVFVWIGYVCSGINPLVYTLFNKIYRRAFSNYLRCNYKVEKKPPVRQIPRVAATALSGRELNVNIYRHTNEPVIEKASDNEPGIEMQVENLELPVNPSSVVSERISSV

Take `CNC(C)c1cc(OCc2cc(F)ccc2F)n(CCC2CCCC2)n1` (single isomer, unassigned; (+)) [Example 477, (+)-1-{1-(2-cyclopentylethyl)-5-[(2,5-difluorobenzyl)-oxy]-1H-pyrazol-3-yl}-N-methylethanamine]: the “Test Ex. 3: 5-HT2C receptor agonistic action” value in assay [1] (setting [4]) was −94%.
As for `CNCc1cc(OCc2cc(Cl)ccc2F)n(CC2CCCCO2)n1` (single isomer, unassigned; (-)) [Example 474, (−)-1-{5-[(5-chloro-2-fluorobenzyl)oxy]-1-(tetrahydro-2H-pyran-2-ylmethyl)-1H-pyrazol-3-yl}-N-methylmethanamine], in assay [1] (setting [4]), the “Test Ex. 3: 5-HT2C receptor agonistic action” value is given as −111%.
In the case of `CNC(C)c1cc(OCc2cc(F)ccc2F)n(CCC2CCCC2)n1` (single isomer, unassigned; (-)) [Example 476, (−)-1-{1-(2-cyclopentylethyl)-5-[(2,5-difluorobenzyl)-oxy]-1H-pyrazol-3-yl}-N-methylethanamine], the “Test Ex. 3: 5-HT2C receptor agonistic action” value in assay [1] (setting [4]) is −72%.
For the compound `CNCc1cc(OCc2cccc(OC)c2)n(CC2CCCCC2)n1` [Compound 42], the “Test Ex. 3: 5-HT2C receptor agonistic action” value in assay [1] (setting [4]) was −106%. The pKi in assay [2] (setting [5]) was 8.31.
`CNCc1cc(OCc2ccc(F)cc2C)n(CC2CCCCO2)n1` (stereo not drawn) [Compound 108]: the “Test Ex. 3: 5-HT2C receptor agonistic action” value in assay [1] (setting [4]) is −117%. Also, the results for the pKi in assay [2] (setting [5]) and in assay [3] were 8.72 and 7.74, respectively.
On the same counts, the results for `CNCc1cc(OCc2cc(Cl)ccc2F)n(CCC(C)OC)n1` (stereo not drawn) [Compound 405] are −90%, 7.96 and 7.64.
Consider `CNCc1cc(OCc2cc(Cl)ccc2F)n(CC2(OC)CCCCC2)n1` [Compound 434], for which, in assay [1] (setting [4]), the “Test Ex. 3: 5-HT2C receptor agonistic action” value is −87%. In assay [2] (setting [5]), the pKi was 8.35.
For `CNCc1cc(OCc2ccccc2)n(CCCc2ccccc2)n1` [Example 3, 1-[5-(Benzyloxy)-1-(3-phenylpropyl)-1H-pyrazol-3-yl]-N-methylmethanamine], the “Test Ex. 3: 5-HT2C receptor agonistic action” value in assay [1] is reported as −91%. The pKi is 7.92 in assay [2] (setting [5]) and 8.27 in assay [3].
On the same counts, the results for `CNCc1cc(OCc2ccccc2)n(CC2CCCCC2)n1` [Example 5, 1-[5-(Benzyloxy)-1-(cyclohexylmethyl)-1H-pyrazol-3-yl]-N-methylmethanamine] are −91%, 8.82 and 8.36.
With `CNCc1cc(OCc2ccc(F)cc2F)n(CC2CCCC2)n1` [Example 144, 1-{1-(cyclopentylmethyl)-5-[(2,4-difluorobenzyl)oxy]-1H-pyrazol-3-yl}-N-methylmethanamine], the “Test Ex. 3: 5-HT2C receptor agonistic action” value in assay [1] is reported as −127%. Moreover, the pKi was 8.08 in assay [2] (setting [5]) and 8.66 in assay [3].
Turning to `CNCc1cc(OCc2ccccc2F)n(Cc2ccc(F)cc2)n1` [Example 218, 1-{1-(4-fluorobenzyl)-5-[(2-fluorobenzyl)oxy]-1H-pyrazol-3-yl}-N-methylmethanamine], in assay [1] (setting [4]), the “Test Ex. 3: 5-HT2C receptor agonistic action” value is listed as −111%. The pKi in assay [2] (setting [5]) is 8.01; in assay [3] it was 8.00.
The matching figures for `CCC(CC)n1nc(CNC)cc1OCc1ccc(F)cc1Cl` [Example 253]: −86%, 8.82 and 7.51.
On to `CNCc1cc(OCc2cc(Cl)ccc2F)n(CC(C)C)n1` [Example 256, 1-{5-[(5-chloro-2-fluorobenzyl)oxy]-1-(2-methylpropyl)-1H-pyrazol-3-yl}-N-methylmethanamine], for which the “Test Ex. 3: 5-HT2C receptor agonistic action” value in assay [1] (setting [4]) is listed as −97%.
The same measure, in the same setting: for `CNCc1cc(OCc2cc(Cl)ccc2F)n(CC(C)(C)C)n1` [Example 259, 1-{5-[(5-chloro-2-fluorobenzyl)oxy]-1-(2,2-dimethylpropyl)-1H-pyrazol-3-yl}-N-methylmethanamine] the value was −119%.
On to `CNCc1cc(OCc2cc(F)ccc2F)n(CCC(C)(C)C)n1` [Example 266, 1-{5-[(2,5-difluorobenzyl)oxy]-1-(3,3-dimethylbutyl)-1H-pyrazol-3-yl}-N-methylmethanamine], for which the “Test Ex. 3: 5-HT2C receptor agonistic action” value in assay [1] (setting [4]) is recorded as −86%.
For the compound `CNCc1cc(OCc2cc(Cl)ccc2F)n(CCC(C)(C)OC)n1` [Example 275, 1-{5-[(5-chloro-2-fluorobenzyl)oxy]-1-(3-methoxy-3-methylbutyl)-1H-pyrazol-3-yl}-N-methylmethanamine], in assay [1], the “Test Ex. 3: 5-HT2C receptor agonistic action” value was −88%.
`CNCc1cc(OCc2ccccc2)n(C(C)C2CCCC2)n1.Cl` (stereo not drawn) [Example 288, 1-[5-(Benzyloxy)-1-(1-cyclopentylethyl)-1H-pyrazol-3-yl]-N-methylmethanamine hydrochloride]: the “Test Ex. 3: 5-HT2C receptor agonistic action” value in assay [1] was −80%. The pKi in assay [2] (setting [5]) is 9.07; in assay [3], 7.72.
With `CNC(C)c1cc(OCc2cc(F)ccc2F)n(CCC2CCCC2)n1` (stereo not drawn) [Example 315, 1-{1-(2-cyclopentylethyl)-5-[(2,5-difluorobenzyl)oxy]-1H-pyrazol-3-yl}-N-methylethanamine], the “Test Ex. 3: 5-HT2C receptor agonistic action” value in assay [1] (setting [4]) is −84%.
Turning to `CNCc1cc(OCc2ccccc2)n(C(CO)C2CCCCC2)n1.Cl` (stereo not drawn) [Example 328, 2-{5-(Benzyloxy)-3-[(methylamino)methyl]-1H-pyrazol-1-yl}-2-cyclohexyl-ethanol hydrochloride], in assay [1] (setting [4]), the “Test Ex. 3: 5-HT2C receptor agonistic action” value is −116%. In addition, the pKi is 8.44 in assay [2] and 6.71 in assay [3].

The record behind these values is patent US10183913B2, “Pyrazole compound” (Sumitomo Dainippon Pharma Co., Ltd., priority 2010, dated 2019).
